Measurements from paper PMC8214221, “Sequence determinants in the cathelicidin LL-37 that promote inflammation via presentation of RNA to scavenger receptors” (The Journal of Biological Chemistry, 2021).
Residues, ends and D or L forms follow the SMILES beside them.

Biological target: T1, scavenger receptor SRB1 (Homo sapiens, UniProt Q8WTV0)
T1 construct: host or cells: NHEK (normal human epidermal keratinocytes)
T1 sequence (Q8WTV0 1-552): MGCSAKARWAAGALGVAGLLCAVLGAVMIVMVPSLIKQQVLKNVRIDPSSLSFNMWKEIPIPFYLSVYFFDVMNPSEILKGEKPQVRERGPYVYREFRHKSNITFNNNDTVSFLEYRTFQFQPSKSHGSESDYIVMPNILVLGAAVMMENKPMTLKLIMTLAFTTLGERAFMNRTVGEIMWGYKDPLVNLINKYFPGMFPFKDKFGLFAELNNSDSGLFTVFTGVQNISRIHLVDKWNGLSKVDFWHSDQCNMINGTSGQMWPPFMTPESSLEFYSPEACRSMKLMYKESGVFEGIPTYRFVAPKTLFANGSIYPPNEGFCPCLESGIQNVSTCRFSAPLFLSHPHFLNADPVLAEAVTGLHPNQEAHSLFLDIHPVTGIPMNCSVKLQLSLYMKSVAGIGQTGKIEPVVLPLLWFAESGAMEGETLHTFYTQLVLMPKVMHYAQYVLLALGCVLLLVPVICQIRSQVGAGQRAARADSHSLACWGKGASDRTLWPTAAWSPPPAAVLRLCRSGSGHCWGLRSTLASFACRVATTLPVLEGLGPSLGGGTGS
Test: Proximity ligation assay (PLA) on NHEKs
Format: cell-based
Details: peptide 2 μM 15 min, then biotinylated U1 dsRNA 2 μg/ml 60 min at 4 °C, spatial correlation <40 nm, n = 3
Protocol: Figure 4 LL-34 enables U1 dsRNA association with scavenger receptor (SR) SRB1.A and B, NHEKs with gene knockdown for SRs SCARB1, SCARB1, SCARA3, CD36, LRP1, CD163L1, CXCL16, MSR1, MARCO, and OLR1 were cotreated with U1 dsRNA (2.5 μg/ml) and LL-34 (2 μM) for 18 h. Gene expression of IFNB1 and CXCL10 was assessed with quantitative RT-PCR (n = 3). C, proximity ligation assay (PLA) for U1 dsRNA and SR SRB1 binding. NHEKs were treated with LL-34-parent, LL-34-I24A, and LL-34-L31A (2 μM) for 15 min, followed by treatment with biotinylated U1 dsRNA (2 μg/ml) for 60 min at 4 °C. The physical proximity of LL-34 and SRB1 (C), and U1 dsRNA, and SRB1 (D) was determined with fluorescence-based PLA that produces a red fluorescent signal. DAPI (blue) was used as a nuclear counterstain. The scale bar represents 50 μm. Signal counts of C and D from five visual fields were used for PLA signal quantification, as shown in E and F (n = 3). (∗p < 0.05; ∗∗p < 0.01; ∗∗∗p < 0.001; ∗∗∗∗p < 0.0001). […]
The binding of peptide to SRB1 or U1 to SRB1 was assessed by proximity ligation assay (PLA) (Fig. 4, C–E).
PLA was performed as described previously ([30]). […] PLA signals were captured on Olympus BX41 microscope (widefield) with 40× objective and counted by Duolink ImageTool software, version 1.0 (Sigma–Aldrich). Five fields were captured per treatment for quantification of PLA signals with ImageTool software. […]

| SMILES | Localization of peptide with SRB1 (PLA) |
| --- | --- |
| CC[C@H](C)[C@H](NC(=O)[C@H](CCCCN)NC(=O)[C@H](CCC(=O)O)NC(=O)[C@H](CCCCN)NC(=O)[C@H](CO)NC(=O)[C@H](CCCCN)NC(=O)[C@H](CCCNC(=N)N)NC(=O)[C@H](Cc1ccccc1)NC(=O)[C@H](Cc1ccccc1)NC(=O)[C@H](CC(=O)O)NC(=O)CNC(=O)[C@H](CC(C)C)NC(=O)[C@@H](N)CC(C)C)C(=O)NCC(=O)N[C@@H](CCCCN)C(=O)N[C@@H](CCC(=O)O)C(=O)N[C@@H](Cc1ccccc1)C(=O)N[C@@H](CCCCN)C(=O)N[C@@H](CCCNC(=N)N)C(=O)N[C@H](C(=O)N[C@H](C(=O)N[C@@H](CCC(N)=O)C(=O)N[C@@H](CCCNC(=N)N)C(=O)N[C@@H](C)C(=O)N[C@@H](CCCCN)C(=O)N[C@@H](CC(=O)O)C(=O)N[C@@H](Cc1ccccc1)C(=O)N[C@@H](CC(C)C)C(=O)N[C@@H](CCCNC(=N)N)C(=O)N[C@@H](CC(N)=O)C(=O)N[C@@H](CC(C)C)C(=O)N[C@H](C(=O)N1CCC[C@H]1C(=O)N[C@@H](CCCNC(=N)N)C(=O)O)C(C)C)C(C)C)[C@@H](C)CC [LL-34—I24A] (H-LLGDFFRKSKEKIGKEFKRIVQRAKDFLRNLVPR-OH) | did not achieve close localization |
| CC[C@H](C)[C@H](NC(=O)[C@H](CCCCN)NC(=O)[C@H](CCC(=O)O)NC(=O)[C@H](CCCCN)NC(=O)[C@H](CO)NC(=O)[C@H](CCCCN)NC(=O)[C@H](CCCNC(=N)N)NC(=O)[C@H](Cc1ccccc1)NC(=O)[C@H](Cc1ccccc1)NC(=O)[C@H](CC(=O)O)NC(=O)CNC(=O)[C@H](CC(C)C)NC(=O)[C@@H](N)CC(C)C)C(=O)NCC(=O)N[C@@H](CCCCN)C(=O)N[C@@H](CCC(=O)O)C(=O)N[C@@H](Cc1ccccc1)C(=O)N[C@@H](CCCCN)C(=O)N[C@@H](CCCNC(=N)N)C(=O)N[C@H](C(=O)N[C@H](C(=O)N[C@@H](CCC(N)=O)C(=O)N[C@@H](CCCNC(=N)N)C(=O)N[C@H](C(=O)N[C@@H](CCCCN)C(=O)N[C@@H](CC(=O)O)C(=O)N[C@@H](Cc1ccccc1)C(=O)N[C@@H](CC(C)C)C(=O)N[C@@H](CCCNC(=N)N)C(=O)N[C@@H](CC(N)=O)C(=O)N[C@@H](C)C(=O)N[C@H](C(=O)N1CCC[C@H]1C(=O)N[C@@H](CCCNC(=N)N)C(=O)O)C(C)C)[C@@H](C)CC)C(C)C)[C@@H](C)CC [LL-34—L31A] (H-LLGDFFRKSKEKIGKEFKRIVQRIKDFLRNAVPR-OH) | did not achieve close localization |
